From patent publication US8986731B2, “Pegylated liposomal formulations of hydrophobic photosensitizers for photodynamic therapy” (Biolitec Pharma Marketing Ltd, priority 2003, dated 2015)

Test: Pharmacokinetic properties in HT29 tumour-bearing mice (HPLC of plasma and tissues; tolerability of injection)
Assay type: in vivo, athymic NMRI nu/nu mice
Settings: lateral tail vein injection, 50 μL
Protocol: HT 29 human colorectal carcinoma cells are used. Six to eight weeks old adult female athymic NMRI nu/nu mice (Taconic M&B, Denmark) weighting 22-24 g were inoculated subcutaneously in the left hind thigh with 0.1 ml of 8×10^7 HT29 human colorectal carcinoma cells/ml in 5% glucose. Two to three weeks later, as the tumor reached a surface diameter of 7-8 mm, and a thickness of 2-3 mm in height, 50 μL of Temoporfin (0.2 mg/kg) diluted in ethanol or 50 μL pegylated liposomal formulation of mTHPC (0.04 mg/ml) were injected into lateral tail vein. Following the drug injection animals were held under normal animal house lighting conditions (average illumination of 200 Lux, maximum 600 Lux of fluorescent tube light, with no exposure to sunlight or daylight). No photo-reaction was observed during this period. […] The fluorescence wave length was set at 410 nm for excitation and 653 nm for emission. The tissue concentration of mTHPC was calculated from a calibration curve constructed by plotting the peak height values of mTHPC standard solutions versus their concentrations.

Oc1cccc(-c2c3nc(c(-c4cccc(O)c4)c4ccc([nH]4)c(-c4cccc(O)c4)c4nc(c(-c5cccc(O)c5)c5ccc2[nH]5)CC4)C=C3)c1 [Temoporfin]
Adverse effects during or immediately after injection: No adverse effects
